Assay results: PubChem BioAssay AID1259407 (Chemical Carcinogenesis Research Information System (CCRIS), 2018)
Active and inactive are the calls of the source. No rule for the calls is given here.

Tested on: CCRIS mutagenicity, Ames/micronucleus/aberration tests
Experiment: CCRIS mutagenicity studies
[1] = Test System: AMES SALMONELLA TYPHIMURIUM, Strain/Indicator: TA98, Metabolic Activation: NONE, Method: PREINCUBATION
[2] = Test System: AMES SALMONELLA TYPHIMURIUM, Strain/Indicator: TA98, Metabolic Activation: NONE, Method: STANDARD PLATE
[3] = Test System: AMES SALMONELLA TYPHIMURIUM, Strain/Indicator: TA100, Metabolic Activation: NONE, Method: PREINCUBATION
[4] = Test System: AMES SALMONELLA TYPHIMURIUM, Strain/Indicator: TA100, Metabolic Activation: NONE, Method: STANDARD PLATE
[5] = Test System: AMES SALMONELLA TYPHIMURIUM, Strain/Indicator: TA1538, Metabolic Activation: NONE, Method: STANDARD PLATE
[6] = Test System: AMES SALMONELLA TYPHIMURIUM, Strain/Indicator: TA1538, Metabolic Activation: RAT, LIVER, S-9, AROCLOR 1254, Method: STANDARD PLATE

CCCCC(CC)COC(=O)c1ccc(N(C)N=O)cc1 (configuration not stated)
mutagenic call (Test System: AMES SALMONELLA TYPHIMURIUM, Strain/Indicator: TA98, Metabolic Activation: HAMSTER, LIVER, S-9, AROCLOR 1254, Method: PREINCUBATION): inactive; negative
mutagenic call (Test System: AMES SALMONELLA TYPHIMURIUM, Strain/Indicator: TA98, Metabolic Activation: HAMSTER, LIVER, S-9, AROCLOR 1254, Method: STANDARD PLATE): inactive; negative
mutagenic call [1]: inactive; negative
mutagenic call [2]: inactive; negative
mutagenic call (Test System: AMES SALMONELLA TYPHIMURIUM, Strain/Indicator: TA98, Metabolic Activation: RAT, LIVER, S-9, AROCLOR 1254, Method: PREINCUBATION): inactive; negative
mutagenic call (Test System: AMES SALMONELLA TYPHIMURIUM, Strain/Indicator: TA98, Metabolic Activation: RAT, LIVER, S-9, AROCLOR 1254, Method: STANDARD PLATE): inactive; negative
mutagenic call (Test System: AMES SALMONELLA TYPHIMURIUM, Strain/Indicator: TA100, Metabolic Activation: HAMSTER, LIVER, S-9, AROCLOR 1254 (1.5 OR 3.6 MG), Method: PREINCUBATION): inactive; negative
mutagenic call (Test System: AMES SALMONELLA TYPHIMURIUM, Strain/Indicator: TA100, Metabolic Activation: HAMSTER, LIVER, S-9, AROCLOR 1254, Method: PREINCUBATION): inactive; negative
mutagenic call (Test System: AMES SALMONELLA TYPHIMURIUM, Strain/Indicator: TA100, Metabolic Activation: HAMSTER, LIVER, S-9, AROCLOR 1254, Method: STANDARD PLATE): inactive; negative
mutagenic call [3]: inactive; negative
mutagenic call [4]: inactive; negative
mutagenic call (Test System: AMES SALMONELLA TYPHIMURIUM, Strain/Indicator: TA100, Metabolic Activation: RAT, LIVER, S-9, AROCLOR 1254 (1.5 OR 2.2 MG), Method: PREINCUBATION): inactive; negative
mutagenic call (Test System: AMES SALMONELLA TYPHIMURIUM, Strain/Indicator: TA100, Metabolic Activation: RAT, LIVER, S-9, AROCLOR 1254, Method: PREINCUBATION): inactive; negative
mutagenic call (Test System: AMES SALMONELLA TYPHIMURIUM, Strain/Indicator: TA100, Metabolic Activation: RAT, LIVER, S-9, AROCLOR 1254, Method: STANDARD PLATE): inactive; negative
mutagenic call (Test System: AMES SALMONELLA TYPHIMURIUM, Strain/Indicator: TA1535, Metabolic Activation: HAMSTER, LIVER, S-9, AROCLOR 1254 (1.5 OR 3.6 MG), Method: PREINCUBATION): inactive; negative
mutagenic call (Test System: AMES SALMONELLA TYPHIMURIUM, Strain/Indicator: TA1535, Metabolic Activation: HAMSTER, LIVER, S-9, AROCLOR 1254, Method: PREINCUBATION): inactive; negative
mutagenic call (Test System: AMES SALMONELLA TYPHIMURIUM, Strain/Indicator: TA1535, Metabolic Activation: HAMSTER, LIVER, S-9, AROCLOR 1254, Method: STANDARD PLATE): inactive; negative
mutagenic call (Test System: AMES SALMONELLA TYPHIMURIUM, Strain/Indicator: TA1535, Metabolic Activation: NONE, Method: PREINCUBATION): inactive; negative
mutagenic call (Test System: AMES SALMONELLA TYPHIMURIUM, Strain/Indicator: TA1535, Metabolic Activation: NONE, Method: STANDARD PLATE): inactive; negative
mutagenic call (Test System: AMES SALMONELLA TYPHIMURIUM, Strain/Indicator: TA1535, Metabolic Activation: RAT, LIVER, S-9, AROCLOR 1254 (1.5 OR 2.2 MG), Method: PREINCUBATION): inactive; negative
mutagenic call (Test System: AMES SALMONELLA TYPHIMURIUM, Strain/Indicator: TA1535, Metabolic Activation: RAT, LIVER, S-9, AROCLOR 1254, Method: PREINCUBATION): inactive; negative
mutagenic call (Test System: AMES SALMONELLA TYPHIMURIUM, Strain/Indicator: TA1535, Metabolic Activation: RAT, LIVER, S-9, AROCLOR 1254, Method: STANDARD PLATE): inactive; negative
mutagenic call (Test System: AMES SALMONELLA TYPHIMURIUM, Strain/Indicator: TA1537, Metabolic Activation: HAMSTER, LIVER, S-9, AROCLOR 1254, Method: PREINCUBATION): inactive; negative
mutagenic call (Test System: AMES SALMONELLA TYPHIMURIUM, Strain/Indicator: TA1537, Metabolic Activation: HAMSTER, LIVER, S-9, AROCLOR 1254, Method: STANDARD PLATE): inactive; negative
mutagenic call (Test System: AMES SALMONELLA TYPHIMURIUM, Strain/Indicator: TA1537, Metabolic Activation: NONE, Method: PREINCUBATION): inactive; negative
mutagenic call (Test System: AMES SALMONELLA TYPHIMURIUM, Strain/Indicator: TA1537, Metabolic Activation: NONE, Method: STANDARD PLATE): inactive; negative
mutagenic call (Test System: AMES SALMONELLA TYPHIMURIUM, Strain/Indicator: TA1537, Metabolic Activation: RAT, LIVER, S-9, AROCLOR 1254, Method: PREINCUBATION): inactive; negative
mutagenic call (Test System: AMES SALMONELLA TYPHIMURIUM, Strain/Indicator: TA1537, Metabolic Activation: RAT, LIVER, S-9, AROCLOR 1254, Method: STANDARD PLATE): inactive; negative
mutagenic call (Test System: AMES SALMONELLA TYPHIMURIUM, Strain/Indicator: TA1538, Metabolic Activation: HAMSTER, LIVER, S-9, AROCLOR 1254, Method: PREINCUBATION): inactive; negative
mutagenic call (Test System: AMES SALMONELLA TYPHIMURIUM, Strain/Indicator: TA1538, Metabolic Activation: HAMSTER, LIVER, S-9, AROCLOR 1254, Method: STANDARD PLATE): inactive; negative
mutagenic call (Test System: AMES SALMONELLA TYPHIMURIUM, Strain/Indicator: TA1538, Metabolic Activation: NONE, Method: PREINCUBATION): inactive; negative
mutagenic call [5]: inactive; negative
mutagenic call (Test System: AMES SALMONELLA TYPHIMURIUM, Strain/Indicator: TA1538, Metabolic Activation: RAT, LIVER, S-9, AROCLOR 1254, Method: PREINCUBATION): inactive; negative
mutagenic call [6]: inactive; negative
mutagenic call (Test System: MOUSE LYMPHOMA, Strain/Indicator: L5178Y (TK+/TK-), Metabolic Activation: HAMSTER, LIVER, S-9, AROCLOR 1254, Method: SUSPENSION/PLATE): inactive; negative

CCN(CC)c1ccc2c(C(F)(F)F)cc(=O)oc2c1
mutagenic call [5]: inactive; negative
mutagenic call [6]: inactive; negative

CC(=O)C[C@@H]1CCC(=O)CCC(=O)O[C@H](CC(C)=O)CCC(=O)CCC(=O)O1
mutagenic call (Test System: CHINESE HAMSTER V-79, Strain/Indicator: V-79 (HPRT)/6-THIOGUANINE, Metabolic Activation: NONE): inactive; negative

CCCCCCCCCCCCCCCc1cccc(O)c1C(=O)O
mutagenic call (End Point: In vivo micronucleus, Test System: Peripheral blood erythrocytes, Species: Mouse, Strain/Sex: CD-1, Route: Oral): inactive; negative

CCCCO
mutagenic call [2]: inactive; negative
mutagenic call (Test System: AMES SALMONELLA TYPHIMURIUM, Strain/Indicator: TA98, Metabolic Activation: RAT, LIVER, S-9, AROCLOR, Method: STANDARD PLATE): inactive; negative
mutagenic call [4]: inactive; negative
mutagenic call (Test System: AMES SALMONELLA TYPHIMURIUM, Strain/Indicator: TA100, Metabolic Activation: RAT, LIVER, S-9, AROCLOR, Method: STANDARD PLATE): inactive; negative
mutagenic call (Test System: AMES SALMONELLA TYPHIMURIUM, Strain/Indicator: UTH8413, Metabolic Activation: NONE, Method: STANDARD PLATE): inactive; negative
mutagenic call (Test System: AMES SALMONELLA TYPHIMURIUM, Strain/Indicator: UTH8413, Metabolic Activation: RAT, LIVER, S-9, AROCLOR, Method: STANDARD PLATE): inactive; negative
mutagenic call (Test System: AMES SALMONELLA TYPHIMURIUM, Strain/Indicator: UTH8414, Metabolic Activation: NONE, Method: STANDARD PLATE): inactive; negative
mutagenic call (Test System: AMES SALMONELLA TYPHIMURIUM, Strain/Indicator: UTH8414, Metabolic Activation: RAT, LIVER, S-9, AROCLOR, Method: STANDARD PLATE): inactive; negative

CNP(=O)(NC)NC
mutagenic call (Test System: AMES SALMONELLA TYPHIMURIUM, Strain/Indicator: TA100, Metabolic Activation: NONE, Method: SUSPENSION): inactive; negative
mutagenic call (Test System: AMES SALMONELLA TYPHIMURIUM, Strain/Indicator: TA100, Metabolic Activation: RAT, LIVER, S-9, AROCLOR 1254, Method: SUSPENSION): inactive; negative

COCC(O)Cn1cc([N+](=O)[O-])nc1Cl (configuration not stated)
mutagenic call [2]: inactive; negative
mutagenic call (Test System: AMES SALMONELLA TYPHIMURIUM, Strain/Indicator: TA98, Metabolic Activation: RAT, LIVER, S-9, Method: STANDARD PLATE): active; positive
mutagenic call [4]: active; positive
mutagenic call (Test System: AMES SALMONELLA TYPHIMURIUM, Strain/Indicator: TA100, Metabolic Activation: RAT, LIVER, S-9, Method: STANDARD PLATE): active; positive

CN1CCNCC1
mutagenic call [1]: inactive; negative
mutagenic call (Test System: AMES SALMONELLA TYPHIMURIUM, Strain/Indicator: TA98, Metabolic Activation: RAT, LIVER, S-9, PCB, Method: PREINCUBATION): inactive; negative
mutagenic call [3]: inactive; negative
mutagenic call (Test System: AMES SALMONELLA TYPHIMURIUM, Strain/Indicator: TA100, Metabolic Activation: RAT, LIVER, S-9, PCB, Method: PREINCUBATION): inactive; negative
